Legend:
Experiment in all cases: selective drug sensitivity score (sDSS, relative to normal bone marrow) (sDSS (score)); higher = more potent and effective on the cell line relative to normal bone marrow cells
Conditions in all cases: 72 h
[1] = system: TANOUE
[2] = system: P12-ICHIKAWA
[3] = system: 380
[4] = system: COG-LL-394h
[5] = system: HPB-ALL
[6] = system: ALL-PO
[7] = system: KARPAS-45
[8] = system: CCRF-CEM
[9] = system: MOLT-16
[10] = system: 697
[11] = system: SUP-B15
[12] = system: TMD5
[13] = system: RCH-ACV
[14] = system: COG-LL-355h
[15] = system: P30-OHKUBO
[16] = system: NALM-16
[17] = system: SEM cells
[18] = system: MOLT-14
[19] = system: COG-LL-402h
[20] = system: RPMI-8402
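Note: ALL cell lines in 384-well plates, five doses spanning 10,000-fold, each plate scaled between vehicle and 100 µmol/L benzalkonium chloride controls, sDSS an adapted area-under-curve metric.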

| SMILES | selective drug sensitivity score [1] | selective drug sensitivity score [2] | selective drug sensitivity score [3] | selective drug sensitivity score [4] | selective drug sensitivity score [5] | selective drug sensitivity score [6] | selective drug sensitivity score [7] | selective drug sensitivity score [8] | selective drug sensitivity score [9] | selective drug sensitivity score [10] | selective drug sensitivity score [11] | selective drug sensitivity score [12] | selective drug sensitivity score [13] | selective drug sensitivity score [14] | selective drug sensitivity score [15] | selective drug sensitivity score [16] | selective drug sensitivity score [17] | selective drug sensitivity score [18] | selective drug sensitivity score [19] | selective drug sensitivity score [20] |
| --- | --- | --- | --- | --- | --- | --- | --- | --- | --- | --- | --- | --- | --- | --- | --- | --- | --- | --- | --- | --- |
| Cc1noc2c1-c1ccccc1C(c1ccc(Cl)cc1)=N[C@H]2CC(N)=O [CPI-0610] (top concentration 10000 nM) | -5.8 | 4.4 | 1.7 | 0.5 | 1 | 7.9 | 6.7 | -0.1 | 6.7 | 7.1 | 5.7 | 0 | 10.9 | 10.3 | 6.1 | 1.4 | 7.5 | 0.3 | 4.9 | 4.4 |
| Cc1cc(Nc2ncc(Cl)c(Nc3ccccc3S(=O)(=O)C(C)C)n2)c(OC(C)C)cc1C1CCNCC1 [Ceritinib] (top concentration 2500 nM) | -3.44 | -3.44 | 0.36 | 5.16 | 1.86 | -0.94 | -2.54 | -3.34 | -3.44 | -2.24 | -3.44 | -3.44 | -2.04 | 2.86 | -2.44 | -3.44 | -3.44 | -3.44 | 2.86 | -1.84 |
| Nc1nc(Cl)nc2c1ncn2[C@@H]1O[C@H](CO)[C@@H](O)[C@@H]1F [Clofarabine] (top concentration 10000 nM) | -18.6 | 2.1 | 13.4 | -27.4 | -8.5 | 1.2 | -22.6 | 8.2 | 4.4 | 9.6 | 10.5 | -26.5 | 6.8 | 3 | 10.3 | -5.6 | 7 | 11.4 | 8.1 | 3.5 |
| CC1(COc2ccc3c(c2)ncn3-c2ccc3cccc(N4CCC(N)CC4)c3n2)COC1 [Crenolanib] (top concentration 10000 nM) | -9.32 | -2.62 | 2.08 | -3.62 | -3.12 | 7.78 | 1.28 | -1.82 | -0.22 | 3.28 | 0.88 | -0.02 | -1.12 | 0.48 | -2.72 | -7.62 | 13.9 | -1.22 | 0.68 | -2.72 |
| Cc1nc(Nc2ncc(C(=O)Nc3c(C)cccc3Cl)s2)cc(N2CCN(CCO)CC2)n1 [Dasatinib] (top concentration 1000 nM) | -2.8 | -1.7 | -2.8 | 0.3 | -2.8 | -0.2 | 1.7 | -2.8 | -2.8 | 3.1 | 30.2 | 10.4 | 21.5 | -2.8 | 6.1 | -2.8 | -2.4 | 4.2 | 16.8 | -0.8 |
| CCc1cnn2c(NCc3ccc[n+]([O-])c3)cc(N3CCCC[C@H]3CCO)nc12 [Dinaciclib] (top concentration 1000 nM) | -14.3 | -6.44 | -5.34 | -1.74 | -4.34 | -6.64 | -0.34 | -2.54 | -2.24 | -2.64 | -3.64 | -10.8 | -0.64 | -4.14 | 0.26 | -7.04 | -4.34 | -3.24 | 2.86 | -2.64 |
| COc1cccc2c1C(=O)c1c(O)c3c(c(O)c1C2=O)C[C@@](O)(C(=O)CO)C[C@@H]3O[C@H]1C[C@H](N)[C@H](O)[C@H](C)O1 [Doxorubicin] (top concentration 1000 nM) | -7.62 | 5.08 | 11.9 | 7.18 | -0.42 | -0.12 | 0.78 | 7.28 | 16.1 | 9.88 | 11.4 | 3.18 | 10.6 | 3.98 | 5.18 | -1.82 | 4.08 | 13.8 | 13.1 | 5.58 |
| C=C1C[C@@H]2[C@H](CC[C@]3(C)C(=O)CC[C@@H]23)[C@@]2(C)C=CC(=O)C=C12 [Exemestane] (top concentration 10000 nM) | -0.7 | -1.9 | 7.7 | -0.4 | 5.5 | -1.9 | -1.2 | -0.9 | -1.7 | -0.9 | 1.1 | -0.1 | 0.4 | 1 | -0.4 | -1.9 | -1.9 | 1 | 2.2 | -1.9 |
| COc1cc2c(Oc3ccc(NC(=O)C4(C(=O)Nc5ccc(F)cc5)CC4)cc3F)ccnc2cc1OCCCN1CCOCC1 [Foretinib] (top concentration 1000 nM) | -4.46 | 1.34 | -0.56 | 1.84 | 3.34 | 10.8 | 2.44 | 0.64 | 0.24 | 2.24 | 8.74 | 2.64 | 0.44 | 0.34 | 0.54 | 1.04 | 20.9 | 1.94 | 1.64 | 0.34 |
